Data as given in patent US9144239B2, “Macrocyclic picolinamides as fungicides” (DOW AGROSCIENCES LLC, priority 2012, dated 2015).
Where two headings read alike, the source gives them in different places.

How the values were obtained:
[1] = test system: Puccinia triticina; synonym: Puccinia recondita f. sp. tritici; experiment: Fungicidal activity: wheat brown rust (PUCCRT), wheat seedlings; format: in vivo
Protocol: Technical grades of materials were dissolved in acetone, which were then mixed with nine volumes of water containing 110 ppm Triton X-100. The fungicide solutions were applied onto wheat seedlings using an automated booth sprayer to run-off. All sprayed plants were allowed to air dry prior to further handling. Wheat plants (variety Yuma) were grown from seed in a greenhouse in 50% mineral soil/50% soil-less Metro mix until the first leaf was fully emerged, with 7-10 seedlings per pot. These plants were inoculated with an aqueous spore suspension of Septoria tritici either prior to or after fungicide treatments. After inoculation the plants were kept in 100% relative humidity (one day in a dark dew chamber followed by two to three days in a lighted dew chamber at 20° C.) to permit spores to germinate and infect the leaf. The plants were then transferred to a greenhouse set at 20° C. for disease to develop. When disease symptoms were fully expressed on the 1st leaves of untreated plants, infection levels were assessed on a scale of 0 to 100 percent disease severity. Percent disease control was calculated using the ratio of disease severity on treated plants relative to untreated plants. Evaluation of Fungicidal Activity: Wheat Brown Rust (Puccinia […]; Synonym: Puccinia recondita f. Sp. Tritici; Bayer Code PUCCRT) Wheat plants (variety Yuma) were grown from seed in a greenhouse in 50% mineral soil/50% soil-less Metro mix until the first leaf was fully emerged, with 7-10 seedlings per pot. These plants were inoculated with an aqueous spore suspension of Puccinia triticina either prior to or after fungicide treatments. After inoculation the plants were kept in a dark dew room at 22° C. with 100% relative humidity overnight to permit spores to germinate and infect the leaf. The plants were then transferred to a greenhouse set at 24° C. for disease to develop. Fungicide formulation, application and disease assessment followed the procedures as described in the Example A.

[2] = test system: Mycosphaerella graminicola; anamorph: Septoria tritici; experiment: Fungicidal activity: leaf blotch of wheat (SEPTTR), wheat seedlings; format: in vivo; settings: Zymoseptoria tritici
Protocol: Evaluation of Fungicidal Activity: Leaf Blotch of Wheat (Mycosphaerella Graminicola; Anamorph: Septoria tritici; Bayer Code […]) Technical grades of materials were dissolved in acetone, which were then mixed with nine volumes of water containing 110 ppm Triton X-100. The fungicide solutions were applied onto wheat seedlings using an automated booth sprayer to run-off. All sprayed plants were allowed to air dry prior to further handling. Wheat plants (variety Yuma) were grown from seed in a greenhouse in 50% mineral soil/50% soil-less Metro mix until the first leaf was fully emerged, with 7-10 seedlings per pot. These plants were inoculated with an aqueous spore suspension of Septoria tritici either prior to or after fungicide treatments. After inoculation the plants were kept in 100% relative humidity (one day in a dark dew chamber followed by two to three days in a lighted dew chamber at 20° C.) to permit spores to germinate and infect the leaf. The plants were then transferred to a greenhouse set at 20° C. for disease to develop. When disease symptoms were fully expressed on the 1st leaves of untreated plants, infection levels were assessed on a scale of 0 to 100 percent disease severity. Percent disease control was calculated using the ratio of disease severity on treated plants relative to untreated plants.

[3] = 24 h, 100 ppm, 1 Day Protectant, wheat, read-out: Disease Control PUCCRT 1DP
[4] = 72 h, 100 ppm, 3 Day Curative, wheat, read-out: Disease Control PUCCRT 3DC
[5] = 24 h, 100 ppm, 1 Day Protectant, wheat, read-out: Disease Control SEPTTR 1DP
[6] = 72 h, 100 ppm, 3 Day Curative, wheat, read-out: Disease Control SEPTTR 3DC

Structure (SMILES) | pest or weed control at 100 ppm [1, 3] | pest or weed control at 100 ppm [1, 4] | pest or weed control at 100 ppm [2, 5] | pest or weed control at 100 ppm [2, 6] | pest or weed control at 100 ppm ([1]; 24 h, read-out: Disease Control PUCCRT 1DP) | pest or weed control at 100 ppm ([1]; 72 h, read-out: Disease Control PUCCRT 3DC) | pest or weed control at 100 ppm ([2]; 24 h, read-out: Disease Control SEPTTR 1DP) | pest or weed control at 100 ppm ([2]; 72 h, read-out: Disease Control SEPTTR 3DC)
COc1ccnc(C(=O)N[C@H]2COC[C@H](OC3CCCC3)[C@@H](Oc3ccccc3)[C@H](C)OC2=O)c1OCOC(C)=O [Compound 223] | 80 to 100% | 80 to 100% | 80 to 100% | 80 to 100% | – | – | – | –
COc1ccnc(C(=O)N[C@@H]2COC[C@H](OCC(C)C)[C@@H](OCC(C)C)[C@@H](COCC(C)C)OC2=O)c1OCOC(C)=O [Compound 18] | 0 to 80% | 0 to 80% | 0 to 80% | – | – | – | – | –
COc1ccnc(C(=O)N[C@H]2COC[C@H](OC3CCCC3)[C@@H](Oc3ccccc3)[C@H](C)OC2=O)c1O [Compound 204] | 80 to 100% | 80 to 100% | 80 to 100% | 80 to 100% | – | – | – | –
COc1ccnc(C(=O)N[C@H]2CO[C@H](C)[C@H]3OC(C)(C)O[C@@H]3[C@@H](C)OC2=O)c1O [Compound 27] | 0 to 80% | 0 to 80% | 0 to 80% | 0 to 80% | – | – | – | –
COc1ccnc(C(=O)N[C@H]2COC[C@H](OCC(C)C)[C@@H](OCC(C)C)COC2=O)c1O [Compound 8] | 0 to 80% | 80 to 100% | 0 to 80% | 0 to 80% | – | – | – | –
COc1ccnc(C(=O)N[C@@H]2COC[C@H](OCc3ccccc3)[C@@H](OCc3ccccc3)[C@@H](C)OC2=O)c1O [Compound 30, N-((3R,7S,8S,9R)-7,8-bis(benzyloxy)-9-methyl-2-oxo-1,5-dioxonan-3-yl)-3-hydroxy-4-methoxypicolinamide] | – | – | – | – | 0 to 80% | 0 to 80% | 0 to 80% | 0 to 80%
CCCO[C@H]1COC[C@H](NC(=O)c2nccc(OC)c2O)C(=O)O[C@@H](C)[C@@H]1Oc1ccccc1 [Compound 202] | 80 to 100% | 80 to 100% | 80 to 100% | 80 to 100% | – | – | – | –
CCOCC(=O)OCOc1c(OC)ccnc1C(=O)N[C@H]1COC[C@H](Oc2ccc(C)cc2)[C@@H](Oc2ccc(C)cc2)[C@H](C)OC1=O [Compound 225] | 80 to 100% | 80 to 100% | 80 to 100% | 80 to 100% | – | – | – | –
COc1ccnc(C(=O)N[C@H]2COC[C@H](OCC3CC3)[C@@H](OCC3CC3)[C@H](C)OC2=O)c1OCOC(C)=O [Compound 233] | 80 to 100% | 80 to 100% | 80 to 100% | 0 to 80% | – | – | – | –
CCOCC(=O)OCOc1c(OC)ccnc1C(=O)N[C@H]1COC[C@H](Oc2ccc(OC)cc2)[C@@H](Oc2ccc(OC)cc2)[C@H](C)OC1=O [Compound 219] | 80 to 100% | 80 to 100% | 80 to 100% | 0 to 80% | – | – | – | –
COc1ccnc(C(=O)N[C@H]2COC[C@H](Oc3ccc(C)cc3)[C@@H](Oc3ccc(C)cc3)[C@H](C)OC2=O)c1O [Compound 206] | 80 to 100% | 80 to 100% | 80 to 100% | 80 to 100% | – | – | – | –
COc1ccc(O[C@H]2[C@H](C)OC(=O)[C@@H](NC(=O)c3nccc(OC)c3OCOC(C)=O)COC[C@@H]2Oc2ccc(OC)cc2)cc1 [Compound 220] | 80 to 100% | 80 to 100% | 80 to 100% | 80 to 100% | – | – | – | –
COc1ccnc(C(=O)N[C@H]2COC[C@H](OCc3ccccc3)[C@@H](OCc3ccccc3)[C@@H](C)OC2=O)c1O [Compound 49] | 0 to 80% | 0 to 80% | 0 to 80% | 0 to 80% | – | – | – | –
COc1ccnc(C(=O)N[C@H]2COC[C@H](Oc3ccc(F)cc3)[C@@H](OCC(C)C)[C@H](C)OC2=O)c1O [Compound 207] | 80 to 100% | 80 to 100% | 80 to 100% | 80 to 100% | – | – | – | –
